Assay results reported in patent US10092575B2, “Substituted thiophene- and furan-fused azolopyrimidine-5-(6H)-one compounds” (DART NEUROSCIENCE (CAYMAN) LTD., priority 2012, dated 2018).

target: human PDE1b enzyme (Homo sapiens (Human), UniProt Q01064); assay: PDE1b inhibitory assay (IMAP TR-FRET); conditions: not given

Compound	EC50
O=c1n(Cc2ccccc2Cl)c2sc3c(c2c2ncnn12)CCCC3 [Example 81, 6-(2-Chlorobenzyl)-8,9,10,11-tetrahydrobenzo[4,5]thieno[3,2-e][1,2,4]triazolo[1,5-c]pyrimidin-5(6H)-one]	1 to 10 µM
CCN(Cc1cc2c(s1)n(Cc1ccc(OC)cc1)c(=O)n1ncnc21)CC1CCOCC1 [Example 198, 8-((Ethyl((tetrahydro-2H-pyran-4-yl)methyl)amino)methyl)-6-(4-methoxybenzyl)thieno[3,2-e][1,2,4]triazolo[1,5-c]pyrimidin-5(6H)-one]	1 to 10 µM
O=c1n(Cc2ccc(Cl)cc2)c2sccc2c2ncnn12 [Example 5, 6-(4-Chlorobenzyl)thieno[3,2-e][1,2,4]triazolo[1,5-c]pyrimidin-5(6H)-one]	0.1 to 1 µM
COc1ccc(Cn2c(=O)n3ncnc3c3cc(CN4CC(Oc5ccccc5F)C4)sc32)cc1 [Example 190, 8-((3-(2-Fluorophenoxy)azetidin-1-yl)methyl)-6-(4-methoxybenzyl)thieno[3,2-e][1,2,4]triazolo[1,5-c]pyrimidin-5(6H)-one]	1 to 10 µM
COc1ccc(Cn2c(=O)n3ncnc3c3c(C)c(CN4CCNCC4)sc32)cc1 [Example 49, 6-(4-Methoxybenzyl)-9-methyl-8-(piperazin-1-ylmethyl)thieno[3,2-e][1,2,4]triazolo[1,5-c]pyrimidin-5(6H)-one]	0.1 to 1 µM
CC(C)CCc1cc2c(s1)n(Cc1ccccc1)c(=O)n1ncnc21 [Example 25, 6-Benzyl-8-isopentylthieno[3,2-e][1,2,4]triazolo[1,5-c]pyrimidin-5(6H)-one]	0.1 to 1 µM
COc1ccc(Cn2c(=O)n3ncnc3c3c(C)c(CO)sc32)cc1 [Example 77, 8-(Hydroxymethyl)-6-(4-methoxybenzyl)-9-methylthieno[3,2-e][1,2,4]triazolo[1,5-c]pyrimidin-5(6H)-one]	0.1 to 1 µM
COc1ccc(Cn2c(=O)n3ncnc3c3c4c(sc32)CN(CC2CCNCC2)CC4)cc1 [Example 182, 6-(4-Methoxybenzyl)-9-(piperidin-4-ylmethyl)-8,9,10,11-tetrahydropyrido[4′,3′:4,5]thieno[3,2-e][1,2,4]triazolo[1,5-c]pyrimidin-5(6H)-one]	0.1 to 1 µM
COc1ccc(Cn2c(=O)n3ncnc3c3c4c(sc32)CN(Cc2ccc3c(c2)OC(F)(F)O3)CC4)cc1 [Example 114, 9-((2,2-Difluorobenzo[d][1,3]dioxol-5-yl)methyl)-6-(4-methoxybenzyl)-8,9,10,11-tetrahydropyrido[4′,3′:4,5]thieno[3,2-e][1,2,4]triazolo[1,5-c]pyrimidin-5 (6H)-one]	0.1 to 1 µM
COc1ccc(Cn2c(=O)n3ncnc3c3cc(CN4CCN(c5ccc(F)cc5)CC4)sc32)cc1 [Example 188, 8-((4-(4-Fluorophenyl)piperazin-1-yl)methyl)-6-(4-methoxybenzyl)thieno[3,2-e][1,2,4]triazolo[1,5-c]pyrimidin-5(6H)-one]	0.1 to 1 µM
CC(C)CCc1cc2c(s1)n(Cc1ccccc1Cl)c(=O)n1ncnc21 [Example 19, 6-(2-Chlorobenzyl)-8-isopentylthieno[3,2-e][1,2,4]triazolo[1,5-c]pyrimidin-5(6H)-one]	1 to 10 µM
COc1ccc(Cn2c(=O)n3ncnc3c3c4c(sc32)N(Cc2ccc(Cl)cc2)CCC4)cc1OC [Example 153, 8-(4-Chlorobenzyl)-6-(3,4-dimethoxybenzyl)-8,9,10,11-tetrahydropyrido[3′,2′:4,5]thieno[3,2-e][1,2,4]triazolo[1,5-c]pyrimidin-5 (6H)-one]	1 to 10 µM
Cc1csc2c1c1ncnn1c(=O)n2Cc1ccccc1Cl [Example 10, 6-(2-Chlorobenzyl)-9-methylthieno[3,2-e][1,2,4]triazolo[1,5-c]pyrimidin-5(6H)-one]	1 to 10 µM
O=c1n(Cc2ccccc2Cl)c2sc(Cc3ccccc3)cc2c2ncnn12 [Example 8, 8-benzyl-6-(2-Chlorobenzyl)thieno[3,2-e][1,2,4]triazolo[1,5-c]pyrimidin-5(6H)-one]	0.1 to 1 µM
O=c1n(Cc2ccccc2)c2sccc2c2ncnn12 [Example 24, 6-Benzylthieno[3,2-e][1,2,4]triazolo[1,5-c]pyrimidin-5(6H)-one]	1 to 10 µM
COc1ccc(Cn2c(=O)n3ncnc3c3c4c(sc32)CCNC4)cc1 [Example 184, 6-(4-Methoxybenzyl)-8,9,10,11-tetrahydropyrido[3′,4′:4,5]thieno[3,2-e][1,2,4]triazolo[1,5-c]pyrimidin-5(6H)-one]	0.1 to 1 µM
O=c1n(Cc2ccc(Cl)cc2)c2sc(Cc3ccccc3)cc2c2ncnn12 [Example 22, 8-Benzyl-6-(4-chlorobenzyl)thieno[3,2-e][1,2,4]triazolo[1,5-c]pyrimidin-5(6H)-one]	0.1 to 1 µM
O=c1n(Cc2ccccc2)c2sc3c(c2c2ncnn12)CCCC3 [Example 84, 6-Benzyl-8,9,10,11-tetrahydrobenzo[4,5]thieno[3,2-e][1,2,4]triazolo[1,5-c]pyrimidin-5(6H)-one]	0.1 to 1 µM
COc1ccc(Cn2c(=O)n3ncnc3c3c(CN4C[C@@H](C)O[C@@H](C)C4)csc32)cc1 [Example 78, 9-(((2S,6R)-2,6-Dimethylmorpholino)methyl)-6-(4-methoxybenzyl)thieno[3,2-e][1,2,4]triazolo[1,5-c]pyrimidin-5(6H)-one]	0.1 to 1 µM

same assay, conditions: negative log of half-maximal molar inhibitory concentration; 200 nM FAM-cAMP; reported as ranges

Compound	PDE1b (pEC50)
COc1ccc(Cn2c(=O)n3ncnc3c3c4c(sc32)CN(Cc2ncccn2)CC4)cc1 [Example 116, 6-(4-Methoxybenzyl)-9-(pyrimidin-2-ylmethyl)-8,9,10,11-tetrahydropyrido[4′,3′:4,5]thieno[3,2-e][1,2,4]triazolo[1,5-c]pyrimidin-5 (6H)-one]	>7
COc1ccc(Cn2c(=O)n3ncnc3c3c(C)c(CN4CC5CCC(C4)O5)sc32)cc1 [Example 67, 8-(8-Oxa-3-azabicyclo[3.2.1]octan-3-ylmethyl)-6-(4-methoxybenzyl)-9-methylthieno[3,2-e][1,2,4]triazolo[1,5-c]pyrimidin-5(6H)-one]	>7
COc1ccc(Cn2c(=O)n3ncnc3c3c4c(sc32)CN(Cc2ncccn2)CC4)c(F)c1 [Example 137, 6-(2-Fluoro-4-methoxybenzyl)-9-(pyrimidin-2-ylmethyl)-8,9,10,11-tetrahydropyrido[4′,3′:4,5]thieno[3,2-e][1,2,4]triazolo[1,5-c]pyrimidin-5 (6H)-one]	>7
O=c1n(Cc2ccc(Cl)cc2F)c2sc3c(c2c2ncnn12)CCN(Cc1ncccn1)C3 [Example 132, 6-(4-Chloro-2-fluorobenzyl)-9-(pyrimidin-2-ylmethyl)-8,9,10,11-tetrahydropyrido[4′,3′:4,5]thieno[3,2-e][1,2,4]triazolo[1,5-c]pyrimidin-5 (6H)-one]	>7
COc1ccc(Cn2c(=O)n3ncnc3c3c4c(sc32)CN(Cc2ccccc2F)CC4)cc1 [Example 128, 9-(2-Fluorobenzyl)-6-(4-methoxybenzyl)-8,9,10,11-tetrahydropyrido[4′,3′:4,5]thieno[3,2-e][1,2,4]triazolo[1,5-c]pyrimidin-5(6H)-one]	>7
COc1ccc(Cn2c(=O)n3ncnc3c3c(C)c(CN4CCN(C)C(C)(C)C4)sc32)cc1 [Example 74, 6-(4-Methoxybenzyl)-9-methyl-8-((3,3,4-trimethylpiperazin-1-yl)methyl)thieno[3,2-e][1,2,4]triazolo[1,5-c]pyrimidin-5(6H)-one]	>7
CCN1CCN(Cc2cc3c(s2)n(Cc2ccc(OC)cc2)c(=O)n2ncnc32)CC1=O [Example 34, 8-((4-Ethyl-3-oxopiperazin-1-yl)methyl)-6-(4-methoxybenzyl)thieno[3,2-e][1,2,4]triazolo[1,5-c]pyrimidin-5(6H)-one]	>7
COc1ccc(Cn2c(=O)n3ncnc3c3c4c(sc32)N(CC2CCOCC2)CCC4)cc1 [Example 148, 6-(4-Methoxybenzyl)-8-((tetrahydro-2H-pyran-4-yl)methyl)-8,9,10,11-tetrahydropyrido[3′,2′:4,5]thieno[3,2-e][1,2,4]triazolo[1,5-c]pyrimidin-5(6H)-one]	>7
O=C(C1CC1)N1CCc2c(sc3c2c2ncnn2c(=O)n3Cc2ccc(Cl)cc2F)C1 [Example 164, 6-(4-Chloro-2-fluorobenzyl)-9-(cyclopropanecarbonyl)-8,9,10,11-tetrahydropyrido[4′,3′:4,5]thieno[3,2-e][1,2,4]triazolo[1,5-c]pyrimidin-5(6H)-one]	>7
COc1ccc(Cn2c(=O)n3ncnc3c3c4c(sc32)CN(Cc2nccn2C)CC4)cc1 [Example 122, 6-(4-Methoxybenzyl)-9-((1-methyl-1H-imidazol-2-yl)methyl)-8,9,10,11-tetrahydropyrido[4′,3′:4,5]thieno[3,2-e][1,2,4]triazolo[1,5-c]pyrimidin-5(6H)-one]	>7
COc1ccc(Cn2c(=O)n3ncnc3c3cc(CN4CCS(=O)(=O)CC4)sc32)cc1 [Example 206, 8-((1,1-Dioxidothiomorpholino)methyl)-6-(4-methoxybenzyl)thieno[3,2-e][1,2,4]triazolo[1,5-c]pyrimidin-5(6H)-one]	>7
COc1ccc(Cn2c(=O)n3ncnc3c3cc(CN4CCCOCC4)sc32)cc1 [Example 29, 8-((1,4-Oxazepan-4-yl)methyl)-6-(4-methoxybenzyl)thieno[3,2-e][1,2,4]triazolo[1,5-c]pyrimidin-5(6H)-one]	>7
COc1ccc(Cn2c(=O)n3ncnc3c3c4c(sc32)CN(Cc2nnc(C)s2)CC4)cc1 [Example 108, 6-(4-Methoxybenzyl)-9-((5-methyl-1,3,4-thiadiazol-2-yl)methyl)-8,9,10,11-tetrahydropyrido[4′,3′:4,5]thieno[3,2-e][1,2,4]triazolo[1,5-c]pyrimidin-5(6H)-one]	>7
COc1ccc(Cn2c(=O)n3ncnc3c3c4c(sc32)CN(C(=O)C2CC2)CC4)cc1 [Example 159, 9-(Cyclopropanecarbonyl)-6-(4-methoxybenzyl)-8,9,10,11-tetrahydropyrido[4′,3′:4,5]thieno[3,2-e][1,2,4]triazolo[1,5-c]pyrimidin-5(6H)-one]	>7
